From patent publication US10865203B2, “Ligands selective to alpha 6 subunit-containing GABAA receptors and their methods of use” (UWM Research Foundation, Inc., priority 2015, dated 2020) come the findings set out here.

Entries after “also recorded” stand apart in the source; their conditions may differ. Read-outs that look alike come from different tables or passages of the source.

For data set [1], the system named is METH-impaired PPI in C57/B6 mice. Put plainly: PPI test, methamphetamine-impaired prepulse inhibition. The note with it: for rescue of METH-impaired PPI: mice, compound 10 mg/kg i.p. 15 min before METH 2 mg/kg i.p. It counts as in vivo, mouse. How it is done: All animal experiments conducted at NTU were approved by the Institutional Animal Care and Use Committee of College of Medicine, National Taiwan University. C57/B6 (8-10 weeks) mice were used for the PPI test and Wistar rats (8-9 weeks) were used in the migraine model. Animals were housed in an animal room with a 12-h light/12-h dark cycle and free access to food and water.
The PPI test was conducted with a PPI apparatus (SR-LAB, San Diego Instruments, San Diego, Calif.) consisting of a startle chamber equipped with various programming acoustic stimulations. After acclimation, the mouse was gently placed in the startle chamber for a 4 min acclimation period with a background noise of 65 dB, which continued throughout the whole PPI test session. One PPI test session consisted of 4 types of startle trials, including the trial with the startle pulse (115 dB) alone (PULSEALONE; 115 dB, 20 ms), two trials with the startle pulse paired with 71 and 77 dB prepulses, respectively (PREPULSE+PULSE; 71 dB+115 dB and 77 dB+115 dB), and the trial without stimulus (NOSTIM; background 65 dB only). A test session started and ended, respectively, with four NOSTIM trials and four PULSEALONE trials. In between, each of the four types of trials was presented 14 times randomly, that is, 56 trials were given in a test session. The intertrial interval was given randomly from 5 to 20 s. In the PREPULSE+PULSE trial, a 71 or 77 dB prepulse was given 120 ms before the 115 dBpulse. The magnitude of PPI (PPI %) was determined, after summarizing the startle responses in PULSEALONE and PREPULSE+PULSE trials, according to the equation (PULSEALON−PREPULSE+PULSE)/PULSEALONE×100%. The tested compound or vehicle was given to the animal for 15 min, followed by methamphetamine (2 mg/kg). The PPI test was conducted 10 min after injection of methamphetamine. Data were expressed as the mean±S.E.M. Statistical comparisons among groups were analyzed by ANOVA with Tukey post hoc test, and differences between groups were analyzed by Student's t-test. Two-way ANOVA with Bonferroni's post hoc test was used to analyze differences in the time courses of locomotor activity among groups. Differences were considered significant if P<0.05.
Methamphetamine and apomorphine were dissolved in normal saline for i.p. And s.c. Injections, respectively. Tested compounds and haloperidol, when given by i.p. Injection, were dissolved in a vehicle containing 20% dmso, 20% Cremophor® el (polyoxyethylene castor, sigma-aldrich) and 60% normal saline. Furosemide was dissolved (20 nmole/μL) in dimethylsulfoxide for intra-cerebellar microinjection the i.p. or s.c. Injection volume was 10 mL/kg.

A short description of data set [2]: Microsomal stability assay, human liver microsomes. The data set is classed as in vitro ADME. The note with it: for % left after 1 hr. (HLM) / half-life at 10 μM / Half-life (min) (HLM): 10 μM test compound, 0.5 mg/mL protein, 37° C.; for stability in Human liver microsomes: Table 2; for half-life at 10 μM: human, liver microsomes, pH 7.4, read-out: Half-life (min) (HLM). The method in brief: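 Test compound at 10 μM was preincubated 5 min at 37 °C in phosphate buffer pH 7.4 with NADPH regenerating system, then started with human or mouse liver microsomes at 0.5 mg/mL protein. Samples were taken at 0–60 min and quenched in cold acetonitrile with internal standard. Slope k came from ln peak-area ratio versus time, three repeats in duplicate.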

In a further data set the test system is α1,4,6β3δ receptors. Nature of the data set: Electrophysiology in Xenopus oocytes, delta-containing receptors. The data set is classed as cell-based, rat. On the procedure:
Mature female Xenopus laevis (Nasco, Fort Atkinson, Wis., USA) were anaesthetized in a bath of ice-cold 0.17% Tricain (Ethyl-m-aminobenzoat, Sigma-Aldrich, St. Louis, Mo., USA) before decapitation and transfer of the frog's ovary to ND96 medium (96 mM NaCl, 2 mM KCl, 1 mM MgCl2, 5 mM HEPES; pH 7.5). Following incubation in 1 mg/mL collagenase (Sigma-Aldrich, St. Louis, Mo., USA) for 30 min, stage 5 to 6 oocytes were singled out of the ovary and defolliculated using a platinum wire loop. Oocytes were stored and incubated at 18° C. in NDE medium (96 mM NaCl, 2 mM KCl, 1 mM MgCl2, 5 mM HEPES, 1.8 mM CaCl2; pH 7.5) that was supplemented with 100 U per mL-1 penicillin, 100 μg per mL-1 streptomycin and 2.5 mM pyruvate. Oocytes were injected with an aqueous solution of mRNA. A total of 2.5 ng of mRNA per oocyte was injected. Subunit ratio was 1:1:5 for αxβγ2 (x=1, 2, 3, 5) and 3:1:5 for α4/6β3γ2 and αβδ receptors. Injected oocytes were incubated for at least 36 h before electrophysiological recordings. Oocytes were placed on a nylon-grid in a bath of NDE medium. For current measurements, the oocytes were impaled with two microelectrodes (2-3MΩ), which were filled with 2 M KCl. The oocytes were constantly washed by a flow of 6 mL per min-1 NDE that could be switched to NDE containing GABA and/or drugs. […] All recordings were performed at room temperature at a holding potential of −60 mV using a Warner OC-725C TEV (Warner Instrument, Hamden, Conn., USA) or a Dagan CA-1B Oocyte Clamp or a Dagan TEV-200A TEV (Dagan Corporation, Mineapolis, Minn., USA). Data were digitized using a Digidata 1322A or 1550 data acquisition system (Axon Instruments, Union City, Calif., USA), recorded using Clampex 10.5 software (Molecular Devices, Sunnyvale, Calif., USA), and analyzed using Clampfit 10.5 and GraphPad Prism 6.0 (La Jolla, Calif., USA) software. Concentration-response data were fitted using the Hill equation. Data are given as mean±SEM from at least three oocytes of two batches.
For selected test compounds full dose response curves were recorded in α1-6β3γ2 receptors. For selected compounds, dose response curves in additional receptor subtypes (α1, 4, 6β3δ, α6β1, 2γ2, α1-6β3) were also obtained. For a wider panel of compounds, a two point screening pharmacology was obtained at 1 and 10 μM compound concentrations.

For the compound `COc1ccc(-n2nc3c4ccc(OC)cc4[nH]cc-3c2=O)cc1` [Compound 6, 7-Methoxy-2-(4-methoxyphenyl)-2,5-dihydro-3H-pyrazolo[4,3-c]quinolin-3-one], the “effect of intra-cerebellar furosemide on the rescue of PPI” value in data set [1] (furosemide 10 nmol intra-cerebellar microinjection) was “prevented”. The entries for the “rescue of METH-impaired PPI” value in data set [1], in data set [1] (listed as C6) and in data set [1] (listed as compound 6) were “effectively rescued”, “significantly rescued” and “effective; also recorded: significantly rescued”, respectively. Besides, in data set [2], the “% left after 1 hr. (HLM)” value was found to be 86.1 ± 1.0%. In addition, in data set [2], the “stability in Human liver microsomes” value is reported as 86%. Further, the half-life at 10 μM in data set [2] is 212 ± 25 min. Also, the “α6 preference among α1,4,6β3δ receptors” value in the data set on α1,4,6β3δ receptors is recorded as “α6 preference”; with α1,4,6β3δ receptors (listed as compound 6) it was “preferentially modulate the α6β3δ receptor”.
Take `COc1cccc(-n2nc3c4cc(Cl)ccc4[nH]cc-3c2=O)c1` [LAU 159, 8-Chloro-2-(3-methoxyphenyl)-2,5-dihydro-3H-pyrazolo[4,3-c]quinolin-3-one]: the “rescue of METH-impaired PPI” value in data set [1] was “effective; also recorded: comparable rescue effect as Compound 6”. In data set [2], the “% left after 1 hr. (HLM)” value came out at 81.44 ± 0.16%, the “stability in Human liver microsomes” value is given as roughly 80% and the half-life at 10 μM is 207 ± 15 min. The “α6 preference among α1,4,6β3δ receptors” value with α1,4,6β3δ receptors was “preferentially modulate the α6β3δ receptor; also recorded: α6 preference”.
Turning to `[2H]C([2H])([2H])Oc1ccc2c3nn(-c4ccc(OC)nc4)c(=O)c-3c[nH]c2c1` [DK-I-86-1, 7-Methoxy-d3-2-(6-methoxypyridin-3-yl)-2,5-dihydro-3H-pyrazolo[4,3-c]quinolin-3-one], in data set [2], the “% left after 1 hr. (HLM)” value was found to be 92.3 ± 0.13% and the “Half-life (min) (HLM)” value is listed as 752.30 ± 261 min.
Regarding `COc1ccc(-n2nc3c4ccc(Br)cc4[nH]cc-3c2=O)cc1` [LAU 463, 7-Bromo-2-(4-methoxyphenyl)-2,5-dihydro-3H-pyrazolo[4,3-c]quinolin-3-one], the “rescue of METH-impaired PPI” value in data set [1] was “effective; also recorded: comparable rescue effect as Compound 6”. For the same compound, in data set [2], the “% left after 1 hr. (HLM)” value is given as 66.86 ± 0.13% and the half-life at 10 μM stood at 104 ± 4 min. Besides, in the data set with α1,4,6β3δ receptors, the “α6 preference among α1,4,6β3δ receptors” value is “α6 preference”.
Consider `[2H]C([2H])([2H])Oc1ccc(-n2nc3c4ccc(OC)cc4[nH]cc-3c2=O)cc1` [DK-I-56-1, 7-Methoxy-2-(4-methoxy-d3-phenyl)-2,5-dihydro-3H-pyrazolo[4,3-c]quinolin-3-one], for which, in data set [1], the “rescue of METH-impaired PPI” value is “effective”. For the same compound, in data set [2], the “% left after 1 hr. (HLM)” value was found to be 91.69 ± 0.09% and the “Half-life (min) (HLM)” value was 520 ± 51 min.
